Experimental data published in PubChem BioAssay (NCI).
Several values for one entry are separate records, joined by “and”; a condition that tells them apart may be missing. Identical values can stand only once.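 Briefly, cells in 96-well plates were exposed to five compound concentrations for 48 h, and endpoints were estimated by linear interpolation. Abbreviation: GI50, concentration required for 50% inhibition of growth. At the TGI there is no net growth.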

Key:
Test in all cases: DTP human tumour cell line panel, 48 h
DMS 114 small cell lung = system: DMS 114 small cell lung
HOP-18 NSCLC = system: HOP-18 NSCLC
LXFL 529 NSCLC = system: LXFL 529 NSCLC
M19-MEL melanoma = system: M19-MEL melanoma
XF 498 CNS = system: XF 498 CNS
HS 578T breast = system: HS 578T breast
MDA-MB-435 = system: MDA-MB-435
MDA-N = system: MDA-N
DMS 273 small cell lung = system: DMS 273 small cell lung

SMILES	GI50 (HS 578T breast) [µM]	TGI (HS 578T breast) [µM]	GI50 (MDA-MB-435) [µM]	TGI (MDA-MB-435) [µM]	other results
Cc1cccc(C(C)(C)C)c1NC(=O)C(=O)C(C(=O)/C=C\c1ccccc1)C1OC(=O)c2ccccc21 (centres undefined)	–	–	–	–	TGI (DMS 114 small cell lung): > 100 µM; TGI (HOP-18 NSCLC): > 100 µM; TGI (LXFL 529 NSCLC): > 100 µM; TGI (M19-MEL melanoma): > 100 µM; TGI (XF 498 CNS): > 100 µM
CN(C)CCCn1c2c(c3cnccc3c1=O)C(=O)c1ccccc1-2	1.04	7.53	0.49	2.48	–
CCN(Cc1cccc(OC)c1)c1ccc(CO)c(Cl)c1	18.3	61.9	16.6	35.6	–
CSc1nc2c(c(=O)[nH]1)N=C1c3ccccc3C(=O)C1C(c1ccc(F)cc1)N2 (centres undefined)	5.85	43.6	1.65	8.76	–
CC(C)(C)N1CCC1C(N)=O (centres undefined)	> 100	> 100	> 100	> 100	–
O=c1c2ccccc2c2ccccc2c(=O)n1-c1cc2c3ccccc3ccc2c2ccccc12	–	> 100	–	> 100	TGI (MDA-N): > 100 µM
CSc1nc(NC2OCC(OC(C)=O)C(OC(C)=O)C2OC(C)=O)c2c(OC(C)=O)c(C)c(=O)oc2n1 (centres undefined)	–	–	–	–	TGI (DMS 114 small cell lung): > 100 µM; TGI (HOP-18 NSCLC): > 100 µM; TGI (LXFL 529 NSCLC): > 100 µM; TGI (M19-MEL melanoma): > 100 µM; TGI (XF 498 CNS): > 100 µM
C1CC[N-]CC1.C1CC[N-]CC1.C1CC[N-]CC1.C1CC[N-]CC1.[Cl][Rh][Cl]	3.95	54.8	4.09	32.4	–
N[C@@H](Cc1c[nH]c2ccccc12)C(=O)NC1CCN(C(=O)c2c[nH]c3ccccc23)CC1	71.3	> 100	> 100	> 100	–
COc1ccc(-n2c(SCc3cc(OC)c(OC)c(OC)c3)nc3ccc(C)cc3c2=O)c(OC)c1	3.31	> 100	1.05	3.07	–
Cc1ccc(C(=O)Nc2ccc(CN3CCN(C)CC3)c(C(F)(F)F)c2)cc1C#Cc1cnc(N)cc1C#N	0.143	1.33	0.0721	0.659	–
COP(=O)(OC)C(NC(c1ccccc1)c1ccccc1)c1ccc2c(c1)OCO2 (centres undefined)	27.4	59.9	33.3	94.8	–
CCCCCCCCCCC/C(=N/O)c1ccc(O)c2ncccc12	–	–	–	–	TGI (DMS 114 small cell lung): 6.79 µM; TGI (DMS 273 small cell lung): 4.79 µM; TGI (HOP-18 NSCLC): 9.59 µM; TGI (LXFL 529 NSCLC): 7.57 µM; TGI (M19-MEL melanoma): 4.97 µM
CCCC1c2c(ccc3ccccc23)Oc2ccc3ccccc3c21	–	> 100	–	> 100	TGI (MDA-N): > 100 µM
O=C(O)c1ccc2c(c1)Cc1cc([N+](=O)[O-])ccc1-2	–	> 100	–	> 100	–
CC[C@]1(O)CC2CN(CCc3c([nH]c4ccccc34)[C@@](C(=O)OC)(c3cc4c(cc3OC)N(C)[C@H]3[C@@](O)(C(=O)OC)[C@H](OC(C)=O)[C@]5(CC)C=CCN6CC[C@]43[C@@H]65)C2)C1 (some centres undefined)	< 0.005	10.2	< 0.005	< 0.005	–
COc1cc(Nc2nc3cc(N)cc(N)c3nc2-c2ccccc2)cc(OC)c1	10.9	63.8	11.5	23.8	GI50 (MDA-N): 13 µM; TGI (MDA-N): 35.9 µM

SMILES	GI50 (HS 578T breast) [µM]	TGI (HS 578T breast) [µM]	GI50 (MDA-MB-435) [µM]	TGI (MDA-MB-435) [µM]	other results
CCN(CC)c1ccc(/C=C\c2cc(C)c3cc(C)ccc3n2)cc1	5.32	48.4	2.1	> 100	–
CC(C)NCCNC(=O)c1ccccc1Nc1c(Cl)cccc1Cl	–	–	–	–	TGI (DMS 114 small cell lung): 23.4 µM; TGI (DMS 273 small cell lung): 26.6 µM; TGI (LXFL 529 NSCLC): 31.5 µM; TGI (M19-MEL melanoma): 20.8 µM; TGI (XF 498 CNS): 11.4 µM
OCCCCC#Cc1ccccc1C#Cc1ccccc1	15.6	39.6	13.7	27.2	–
CC1OC(n2ncc(=O)[nH]c2=O)C=CC1=O (centres undefined)	–	–	–	–	TGI (LXFL 529 NSCLC): > 100 µM; TGI (M19-MEL melanoma): > 100 µM; GI50 (XF 498 CNS): 54.8 µM and 22.9 µM; TGI (XF 498 CNS): > 100 µM
C[C@]12CCC3[C@@H](C[C@@H]4SC(Nc5ccccc5)=N[C@@]45CC(=O)CC[C@]35C)[C@@H]1CCC2=O (some centres undefined)	12	> 100	3.48	> 100	–
Cc1ccc2c(c1)nc(C(=O)c1ccco1)c(C(F)(F)F)[n+]2[O-]	2.33	5.76	> 100	> 100	–
COCCn1cc(-c2csc(-c3c[nH]c4ccccc34)n2)c2cccnc21	9.14	> 100	0.863	5.25	–
N#CC(=S)Nc1cccc(Cl)c1	–	–	–	> 100	TGI (MDA-N): > 100 µM
C=C1C(=O)O[C@H]2[C@H]1CC/C(COC(=O)NCc1cc3ccccc3[nH]1)=C\CC[C@@]1(C)O[C@@H]21	2.8	15.6	1.75	3.48	–
[Cl][Bi]([O]c1ccccn1)[O]c1ccccn1	–	–	–	–	GI50 (DMS 114 small cell lung): 57 µM; TGI (DMS 114 small cell lung): > 100 µM; GI50 (DMS 273 small cell lung): > 100 µM; TGI (DMS 273 small cell lung): > 100 µM; GI50 (XF 498 CNS): > 100 µM; TGI (XF 498 CNS): > 100 µM
Cc1ccc(C(CN(C)C)C(=O)c2ccccc2)cc1 (centres undefined)	4.7	33.6	2.45	8.92	–
CC(O)/C=C/C(CCC(C)CO)C(C)C (centres undefined)	–	–	–	–	TGI (DMS 114 small cell lung): > 100 µM; TGI (DMS 273 small cell lung): > 100 µM; TGI (LXFL 529 NSCLC): > 100 µM; TGI (M19-MEL melanoma): > 100 µM; TGI (XF 498 CNS): > 100 µM
COc1ccc(/C=C/C(=O)c2cc3c(N)c(C(=O)Nc4ccccc4Cl)sc3nc2C)cc1	0.937	4.56	–	–	–
Cc1ccc(NC(=O)CC2C(=O)Nc3ccccc3S2=O)cc1C (centres undefined)	–	–	–	–	TGI (DMS 114 small cell lung): > 100 µM; TGI (DMS 273 small cell lung): > 100 µM; TGI (LXFL 529 NSCLC): > 100 µM; TGI (M19-MEL melanoma): > 100 µM; TGI (XF 498 CNS): > 100 µM
CC(=O)O[C@H]1C(=O)[C@@]2(C)C(C(OC(=O)c3ccccc3)[C@]3(O)CC(OC(=O)[C@H](OC(=O)CCC(=O)O)C(NC(=O)c4ccccc4)c4ccccc4)C(C)=C1C3(C)C)C1(OC(C)=O)COC1C[C@@H]2OC(=O)CCC(=O)O (some centres undefined)	–	–	0.189	0.495	GI50 (MDA-N): 0.253 µM; TGI (MDA-N): 1.21 µM
N#CC(C(=O)/C(=N/N)C(C#N)c1ccc(Cl)cc1)c1ccc(Cl)cc1 (centres undefined)	–	–	–	–	TGI (DMS 114 small cell lung): > 100 µM; TGI (HOP-18 NSCLC): > 100 µM; TGI (LXFL 529 NSCLC): > 100 µM; TGI (M19-MEL melanoma): > 100 µM; TGI (XF 498 CNS): > 100 µM
Cc1c(C#N)cccc1-c1cc(-c2cn(Cc3cccc(C(C)(C)O)n3)nn2)nc(N)n1	25.6	> 100	26.8	> 100	–
